Experimental data taken from ChEMBL document CHEMBL1201862, “PubChem BioAssay data set” (2004).
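Exposure lasted 48 hours, with cells grown in 96-well plates and compounds tested at five concentrations. The concentration for 50% growth inhibition is given as GI50.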 Calls of active or inactive are those of the source. Rule as the data show it: active = GI50 up to about 1.1 µM and inactive = higher.

Legend:
Experiment in all cases: growth of human tumour cells (NCI), 48 h
CCRF-CEM = test system: CCRF-CEM
COLO 205 = test system: COLO 205
HCT-116 = test system: HCT-116
HCT-15 = test system: HCT-15
HT-29 = test system: HT-29
Hs-578T = test system: Hs-578T
IGROV-1 = test system: IGROV-1
LOX IMVI = test system: LOX IMVI
M14 = test system: M14
MDA-N = test system: MDA-N
MOLT-4 = test system: MOLT-4
NCI-H226 = test system: NCI-H226
OVCAR-3 = test system: OVCAR-3
PC-3 = test system: PC-3
SK-MEL-28 = test system: SK-MEL-28
SK-MEL-2 = test system: SK-MEL-2
SK-OV-3 = test system: SK-OV-3
SNB-19 = test system: SNB-19
SNB-75 = test system: SNB-75
UACC-257 = test system: UACC-257

Row | SMILES | GI50 (CCRF-CEM) | GI50 (COLO 205) | GI50 (HCT-116) | GI50 (HCT-15) [µM] | GI50 (HT-29) | GI50 (Hs-578T) | GI50 (IGROV-1) | GI50 (LOX IMVI) | GI50 (M14) | GI50 (MDA-N) | GI50 (MOLT-4) | GI50 (NCI-H226) | GI50 (OVCAR-3) | GI50 (PC-3) | GI50 (SK-MEL-28) | GI50 (SK-MEL-2) | GI50 (SK-OV-3) | GI50 (SNB-19) | GI50 (SNB-75) | GI50 (UACC-257)
1 | Cc1ccc2c(O)cc(-c3cc4ccccc4s3)nc2n1 | > 100 µM (inactive) | > 100 µM (inactive) | > 100 µM (inactive) | > 70.3 | > 84.7 µM (inactive) | > 41.6 µM (inactive) | 6.65 µM (inactive) | > 94.6 µM (inactive) | > 100 µM (inactive) | 98.9 µM (inactive) | > 100 µM (inactive) | 14.2 µM (inactive) | > 100 µM (inactive) | > 100 µM (inactive) | > 100 µM (inactive) | > 100 µM (inactive) | 45.1 µM (inactive) | > 100 µM (inactive) | 17.5 µM (inactive) | > 100 µM (inactive)
2 | O=C(SCc1cccc2ccccc12)c1ccc(Cl)cc1 | > 100 µM (inactive) | 82.2 µM (inactive) | 66.1 µM (inactive) | 50.9 | 54.2 µM (inactive) | 79.3 µM (inactive) | > 100 µM (inactive) | > 100 µM (inactive) | > 100 µM (inactive) | > 100 µM (inactive) | – | > 100 µM (inactive) | 44.4 µM (inactive) | > 100 µM (inactive) | > 100 µM (inactive) | > 100 µM (inactive) | > 100 µM (inactive) | > 100 µM (inactive) | > 100 µM (inactive) | 76.7 µM (inactive)
3 | N/N=C(\C(=O)Nc1ccc([N+](=O)[O-])cc1)C(C1=Nc2cc([N+](=O)[O-])ccc2NC1)[N+](=O)[O-] (stereo not drawn) | 65.2 µM (inactive) | – | 79.1 µM (inactive) | > 100 | 72.4 µM (inactive) | > 100 µM (inactive) | > 100 µM (inactive) | 74.8 µM (inactive) | > 100 µM (inactive) | > 100 µM (inactive) | > 100 µM (inactive) | > 100 µM (inactive) | > 100 µM (inactive) | > 100 µM (inactive) | > 100 µM (inactive) | > 100 µM (inactive) | > 100 µM (inactive) | > 100 µM (inactive) | > 100 µM (inactive) | > 100 µM (inactive)
4 | CN1CC2=C(N=C(S)NC2c2ccccc2Cl)/C(=C/c2ccccc2Cl)C1 (stereo not drawn) | 28.8 µM (inactive) | 21.8 µM (inactive) | 30.9 µM (inactive) | 64.1 | 30.8 µM (inactive) | > 100 µM (inactive) | 53.7 µM (inactive) | 51.1 µM (inactive) | 38.9 µM (inactive) | 60.3 µM (inactive) | 23 µM (inactive) | 52.7 µM (inactive) | 21.5 µM (inactive) | 26.5 µM (inactive) | > 100 µM (inactive) | 69 µM (inactive) | > 100 µM (inactive) | > 100 µM (inactive) | 3.33 µM (inactive) | 55.8 µM (inactive)
5 | CC1OC(OC2C(Oc3cc(O)c4c(c3)O[C@H](c3ccc(O)cc3)CC4=O)OC(CO)C(O)C2O)C(O)C(O)C1O (stereo partly drawn) | > 100 µM (inactive) | > 100 µM (inactive) | > 100 µM (inactive) | > 100 | > 100 µM (inactive) | > 100 µM (inactive) | > 100 µM (inactive) | > 100 µM (inactive) | > 100 µM (inactive) | > 100 µM (inactive) | > 100 µM (inactive) | > 100 µM (inactive) | > 100 µM (inactive) | > 100 µM (inactive) | > 100 µM (inactive) | > 100 µM (inactive) | > 100 µM (inactive) | – | > 100 µM (inactive) | > 100 µM (inactive)
6 | N#Cc1nc(C(O)c2ccccc2)oc1N (stereo not drawn) | > 100 µM (inactive) | > 100 µM (inactive) | > 100 µM (inactive) | – | > 100 µM (inactive) | > 100 µM (inactive) | > 100 µM (inactive) | > 100 µM (inactive) | > 100 µM (inactive) | > 100 µM (inactive) | > 100 µM (inactive) | > 100 µM (inactive) | > 100 µM (inactive) | > 100 µM (inactive) | > 100 µM (inactive) | > 100 µM (inactive) | > 100 µM (inactive) | > 100 µM (inactive) | > 100 µM (inactive) | > 100 µM (inactive)
7 | CC1(C)CC[C@]2(C(=O)O)CC[C@]3(C)C(=CC[C@@H]4[C@@]5(C)CC[C@H](OC6OC(C(=O)O)C(O)C(O)C6O)C(C)(C)[C@@H]5CC[C@]43C)[C@@H]2C1 (stereo partly drawn) | 21 µM (inactive) | 16.9 µM (inactive) | 16.8 µM (inactive) | 16.9 | 15.1 µM (inactive) | 21.5 µM (inactive) | 20 µM (inactive) | 19 µM (inactive) | 16.9 µM (inactive) | 18.4 µM (inactive) | 19.8 µM (inactive) | 18.5 µM (inactive) | 14.2 µM (inactive) | 18.2 µM (inactive) | 19.6 µM (inactive) | 15.4 µM (inactive) | 19.5 µM (inactive) | 22 µM (inactive) | 18.1 µM (inactive) | 16.4 µM (inactive)
8 | CCCC[Si](CCCC)(CCCC)O[C@@H](/C=C/C(=O)OCC)[C@H](Cc1ccccc1)O[Si](CCCC)(CCCC)CCCC | > 100 µM (inactive) | > 100 µM (inactive) | > 100 µM (inactive) | > 100 | > 100 µM (inactive) | > 100 µM (inactive) | > 100 µM (inactive) | > 100 µM (inactive) | – | > 100 µM (inactive) | > 100 µM (inactive) | > 100 µM (inactive) | – | > 100 µM (inactive) | – | > 100 µM (inactive) | > 100 µM (inactive) | > 100 µM (inactive) | > 100 µM (inactive) | > 100 µM (inactive)
9 | CC[C@@]1(O)C(=O)OCc2c1cc1n(c2=O)Cc2c-1nc1ccccc1c2/C=N\NC(=O)C(C)N (stereo partly drawn) | < 0.01 µM (active) | 7.11 µM (inactive) | 0.186 µM (active) | 4.29 | 1.63 µM (inactive) | 11.9 µM (inactive) | 1.13 µM (inactive) | 0.0254 µM (active) | 0.254 µM (active) | 1.34 µM (inactive) | < 0.0158 µM (active) | 0.33 µM (active) | 7.06 µM (inactive) | 1.91 µM (inactive) | 17.8 µM (inactive) | 13.1 µM (inactive) | – | 0.0233 µM (active) | < 0.0298 µM (active) | 1.37 µM (inactive)
10 | Nc1nc(N)c(N=O)c(Nc2ccc(O)cc2)n1 | 14.9 µM (inactive) | 57.5 µM (inactive) | > 73.3 µM (inactive) | > 57.3 | 18 µM (inactive) | 13.7 µM (inactive) | 7.82 µM (inactive) | 30.3 µM (inactive) | 6.05 µM (inactive) | 28.8 µM (inactive) | 16.1 µM (inactive) | 23.7 µM (inactive) | 47.2 µM (inactive) | 32.2 µM (inactive) | 11.5 µM (inactive) | > 62.1 µM (inactive) | 18.1 µM (inactive) | > 52 µM (inactive) | 18.2 µM (inactive) | > 66.8 µM (inactive)
11 | O=[N+]([O-])c1cc(Cl)cc2cc(Br)cnc12 | > 31.6 µM (inactive) | > 31.6 µM (inactive) | > 31.6 µM (inactive) | > 31.6 | > 31.6 µM (inactive) | 17.6 µM (inactive) | – | > 31.6 µM (inactive) | > 31.6 µM (inactive) | > 31.6 µM (inactive) | > 31.6 µM (inactive) | 29.6 µM (inactive) | > 31.6 µM (inactive) | > 31.6 µM (inactive) | > 31.6 µM (inactive) | 39.9 µM (inactive) | > 10 µM (inactive) | 27.8 µM (inactive) | > 31.6 µM (inactive) | 31.1 µM (inactive)
12 | CCOC(=O)C1=NOC2(C=C(Br)C(=O)C(Br)=C2)C1 | < 0.0132 µM (active) | 0.991 µM (active) | 1.1 µM (active) | 2.03 | 1.97 µM (inactive) | 22.1 µM (inactive) | 7.36 µM (inactive) | 2.47 µM (inactive) | 1.67 µM (inactive) | 1.64 µM (inactive) | < 0.0346 µM (active) | 25.8 µM (inactive) | 1.39 µM (inactive) | 2.29 µM (inactive) | 6.75 µM (inactive) | 6.84 µM (inactive) | 8.39 µM (inactive) | 19 µM (inactive) | 16.9 µM (inactive) | 1.34 µM (inactive)
13 | Oc1ccccc1C1=NOC(c2ccc(C(F)(F)F)cc2)C1 (stereo not drawn) | > 50 µM (inactive) | > 50 µM (inactive) | > 50 µM (inactive) | – | > 50 µM (inactive) | > 50 µM (inactive) | 0.527 µM (active) | > 50 µM (inactive) | > 50 µM (inactive) | > 50 µM (inactive) | > 50 µM (inactive) | > 50 µM (inactive) | > 50 µM (inactive) | > 50 µM (inactive) | > 50 µM (inactive) | > 46.1 µM (inactive) | > 50 µM (inactive) | > 50 µM (inactive) | > 50 µM (inactive) | > 50 µM (inactive)
14 | CC(C)=NOC(=O)OC[C@H]1O[C@@H](n2cnc3c(N)ncnc32)C(O)C1O (stereo partly drawn) | > 100 µM (inactive) | > 100 µM (inactive) | – | 72.1 | 85.3 µM (inactive) | > 100 µM (inactive) | > 100 µM (inactive) | 44.9 µM (inactive) | 87.7 µM (inactive) | 43.3 µM (inactive) | > 100 µM (inactive) | > 100 µM (inactive) | > 100 µM (inactive) | > 100 µM (inactive) | > 100 µM (inactive) | > 100 µM (inactive) | > 100 µM (inactive) | > 100 µM (inactive) | > 100 µM (inactive) | –
